The values that follow are results of earlier work, collected in US20070197592A1, “Use of Paliperidone for the Treatment of Substance Abuse” (priority 2005, published 2007).

Data set [1] deals with animals. The settings on record: cited from earlier work; for water or food consumption: at the same time as the inhibition of alcohol consumption.
Data set [2] has as its system golden hamster. The settings on record: cited from earlier work.

Each structure is given as a SMILES string.

As to `C=CCN1CC[C@]23c4c5ccc(O)c4O[C@H]2C(=O)CC[C@@]3(O)[C@H]1C5` [naloxone], in data set [1], the “water or food consumption” value is “impaired water or food consumption” and the alcohol consumption result is “inhibit alcohol consumption”.
Consider `CN[C@H]1CC[C@@H](c2ccc(Cl)c(Cl)c2)c2ccccc21` [sertraline], for which, in data set [1], the “water or food consumption” value is on record as “impaired water or food consumption” and the alcohol consumption entry was “inhibit alcohol consumption”.
Regarding `O=c1c(-c2ccc(O)cc2)coc2cc(O[C@@H]3O[C@H](CO)[C@@H](O)[C@H](O)[C@H]3O)ccc12` [Daidzin], in data set [2], the alcohol drinking entry is listed as “decreases alcohol drinking” and the “water or food intake” value is listed as “without producing a decrease in water or food intake”.
`O=C1CC[C@@]2(O)[C@H]3Cc4ccc(O)c5c4[C@@]2(CCN3CC2CC2)[C@H]1O5` [naltrexone]: in data set [1], the “water or food consumption” value was “impaired water or food consumption” and the alcohol consumption result is on record as “inhibit alcohol consumption”.
